Values quoted from earlier work as cited in patent US20190015339A1, “PHARMACEUTICAL COMBINATION FORMULATION” (SHIN POONG PHARMACEUTICAL CO., LTD., priority 2015, published 2019).
Where two headings read alike, the source gives them in different places.

- absolute bioavailability (used as a solution): about 40%
- absolute bioavailability (used as a tablet formulation): about 15%
SMILES: CCOc1nc2cccc(C(=O)OC(C)OC(=O)OC3CCCCC3)c2n1Cc1ccc(-c2ccccc2-c2nnn[nH]2)cc1 (centres unmarked) [candesartan cilexetil]
